Laboratory results reported in publication PMC5736175, “Nicotinic alpha 7 receptor agonists EVP-6124 and BMS-933043, attenuate scopolamine-induced deficits in visuo-spatial paired associates learning” (PLoS ONE, 2017).
“And” between values parts separate entries of the source, which are not always exact repeats. Equal values may be shown once.

Tests used:
[1] = system: scopolamine-treated cynomolgus monkeys; experiment: Scopolamine-induced impairment of vsPAL task performance, treatment + scopolamine; assay type: in vivo, cynomolgus monkeys (Macaca Fasicularis); conditions: for % Completion / Average Response Latency (Avg Rsp Lat) / Eventual Correct, 3 Stimuli / Eventual Correct, 4 Stimuli / Eventual Correct, Overall Mean % Correct / Initial Correct, 3 Stimuli / Initial Correct, 4 Stimuli / Initial Correct, Overall Mean % Correct / Initial correct, 2 Stimuli / Eventual Correct, 2 Stimuli: im + Scopolamine
[2] = Plasma concentration in vsPAL subjects immediately after completion of testing (LC-MS/MS); conditions: for concentration at 69.8 min: cynomolgus monkey, in vivo
Experimental: For all compounds, plasma pharmacokinetic studies were conducted in a separate cohort of cynomolgus monkeys (N = 2–3 subjects per dose) before beginning vsPAL testing to help guide dose selection. Blood samples were obtained with the animals awake and sitting in a primate chair. For most test sessions with BMS-933043 and EVP-6124, plasma samples were also taken from a subset of vsPAL subjects (N = 4–5) immediately after completion of testing (mean (SD) sample collection time = 69.8 (9.8) min post injection).
Plasma concentrations of test compounds were determined using LC-MS/MS assays. In brief, 50 μL plasma and sample containing compounds was extracted by protein precipitation method with 150 μL acetonitrile containing an internal standard. A 5 μL sample of supernatant was injected into the LC-MS/MS system. Analytes were separated by reversed phase chromatography and detection of each analyte was achieved through selected reaction monitoring mode of mass spectrometry. Samples were quantified by calculated peak area ratio of analyte and internal standard against a calibration curve.

[3] = system: human nAChR α7; parameters: method as in PMID 27467081; conditions: intrinsic activity; HEK293 cells expressing human nAChR α7; cited from earlier work
[4] = BMS-933043 0.3 mg/kg, individual animals, 0.3 mg/kg
[5] = BMS-933043 1.0 mg/kg, group MEAN
[6] = BMS-933043 1.0 mg/kg, individual animals, 1 mg/kg
[7] = all doses of the study, for EVP-6124 study (1)
[8] = compound 0.03 mg/kg i.m. + Scopolamine
[9] = compound 0.10 mg/kg i.m. + Scopolamine
[10] = compound 0.30 mg/kg i.m. + Scopolamine
[11] = compound 1.00 mg/kg i.m. + Scopolamine

c1cn(-c2cc(NC3=NC[C@@]4(CN5CCC4CC5)O3)ncn2)cn1 [BMS-933043, (2R)-N-(6-(1H-imidazol-1-yl)-4-pyrimidinyl)-4'H-spiro[4-azabicyclo[2.2.2]octane-2,5'-[1, 3]oxazol]-2'-amine]
% Completion [1, 4]: 86.3% and 100.0% and 97.7% and 32.1% and 95.8% and 95.1%
Average Response Latency (Avg Rsp Lat) [1, 4]: 1690.5 ms and 1666.2 ms and 1269.7 ms and 2215.8 ms and 1344.9 ms and 1971.0 ms and 2262.1 ms
Eventual Correct, 3 Stimuli [1, 4]: 100.0% and 60.0%
Eventual Correct, 4 Stimuli [1, 4]: 80.0% and 100.0% and 90.0%
Eventual Correct, Overall Mean % Correct [1, 4]: 93.3% and 100.0% and 80.0% and 96.7%
Initial Correct, 3 Stimuli [1, 4]: 80.0% and 100.0% and 60.0% and 10.0% and 90.0%
Initial Correct, 4 Stimuli [1, 4]: 60.0% and 40.0% and 50.0% and 30.0%
Initial Correct, Overall Mean % Correct [1, 4]: 80.0% and 73.3% and 83.3% and 30.0% and 60.0%
Initial correct, 2 Stimuli [1, 4]: 100.0% and 50.0% and 90.0%
% Completion [1, 5]: 71.6%
Average Response Latency (Avg Rsp Lat) [1, 5]: 2029.0 ms
Eventual Correct, 2 Stimuli [1, 5]: 100.0%
Eventual Correct, 3 Stimuli [1, 5]: 97.1%
Eventual Correct, 4 Stimuli [1, 5]: 65.7%
Eventual Correct, Overall Mean % Correct [1, 5]: 87.6%
Initial Correct, 3 Stimuli [1, 5]: 71.4%
Initial Correct, 4 Stimuli [1, 5]: 41.4%
Initial Correct, Overall Mean % Correct [1, 5]: 69.5%
Initial correct, 2 Stimuli [1, 5]: 95.7%
Eventual Correct, 2 Stimuli ([1]; BMS-933043 1.0 mg/kg, individual animals): 100.0%
% Completion [1, 6]: 72.7% and 100.0% and 68.1% and 56.9% and 46.1% and 57.8%
Average Response Latency (Avg Rsp Lat) [1, 6]: 2028.1 ms and 1536.5 ms and 1283.2 ms and 2484.6 ms and 1934.3 ms and 2639.0 ms and 2297.3 ms
Eventual Correct, 3 Stimuli [1, 6]: 90.0% and 100.0%
Eventual Correct, 4 Stimuli [1, 6]: 70.0% and 100.0% and 40.0% and 50.0% and 30.0%
Eventual Correct, Overall Mean % Correct [1, 6]: 86.7% and 96.7% and 80.0% and 83.3% and 76.7% and 90.0% and 100.0%
Initial Correct, 3 Stimuli [1, 6]: 50.0% and 80.0% and 90.0% and 70.0%
Initial Correct, 4 Stimuli [1, 6]: 40.0% and 60.0% and 20.0% and 30.0% and 80.0%
Initial Correct, Overall Mean % Correct [1, 6]: 63.3% and 76.7% and 60.0% and 86.7%
Initial correct, 2 Stimuli [1, 6]: 100.0% and 90.0%
Holm-Sidak Post-Hoc, Treatment+Scopolamine differs from Vehicle+Scopolamine: percent correct on initial attempt, 3-stimuli ([1]; all doses of the study): n.s.
Holm-Sidak Post-Hoc, Treatment+Scopolamine differs from Vehicle+Scopolamine: Choice Response Latency [1, 7]: n.s.
Holm-Sidak Post-Hoc, Treatment+Scopolamine differs from Vehicle+Scopolamine: Percent Task Completed [1, 7]: n.s.
Holm-Sidak Post-Hoc, Treatment+Scopolamine differs from Vehicle+Scopolamine: percent correct on initial attempt, 2-stimuli [1, 7]: n.s.
Holm-Sidak Post-Hoc, Treatment+Scopolamine differs from Vehicle+Scopolamine: percent correct on initial attempt, 4 stimuli [1, 7]: n.s.
Percent Correct on Initial Attempt (SEM), 2 stimuli [1, 8]: 90.0% (3.1%)
Percent Correct on Initial Attempt (SEM), 3 stimuli [1, 8]: 58.6% (8.0%)
Percent Correct on Initial Attempt (SEM), 4 stimuli [1, 8]: 38.3% (9.8%)
Percent Correct on Initial Attempt (SEM), 2 stimuli [1, 9]: 88.6% (3.4%)
Percent Correct on Initial Attempt (SEM), 3 stimuli [1, 9]: 75.7% (5.7%)
Percent Correct on Initial Attempt (SEM), 4 stimuli [1, 9]: 35.7% (8.1%)
Percent Correct on Initial Attempt (SEM), 2 stimuli [1, 10]: 91.4% (7.0%)
Percent Correct on Initial Attempt (SEM), 3 stimuli [1, 10]: 68.6% (11.2%)
Percent Correct on Initial Attempt (SEM), 4 stimuli [1, 10]: 45.0% (5.6%)
Percent Correct on Initial Attempt (SEM), 2 stimuli [1, 11]: 95.7% (2.0%)
Percent Correct on Initial Attempt (SEM), 3 stimuli [1, 11]: 71.4% (5.9%)
Percent Correct on Initial Attempt (SEM), 4 stimuli [1, 11]: 41.4% (8.3%)
dose/exposure range across which efficacy was retained ([1]; eventual accuracy, scopolamine vsPAL): ≥ 10 fold
Cohen's D values at maximally efficacious doses ([1]; large treatment effect sizes): > 8
nM total compound in plasma post session ([2]; 0.03 mg/kg i.m., individual subjects): 14.6 nM and 11.9 nM and 13.1 nM
nM total compound in plasma post session ([2]; 0.10 mg/kg i.m., individual subjects): 37.9 nM and 51.3 nM and 45.6 nM
nM total compound in plasma post session ([2]; 0.30 mg/kg i.m., individual subjects): 156 nM and 134 nM and 143 nM
nM total compound in plasma post session ([2]; 1.00 mg/kg i.m., individual subjects): 414 nM and 530 nM and 413 nM
concentration at 69.8 min ([2]; 0.03 mg/kg, nM total compound in plasma post session, 0.03 mg/kg i.m., individual subjects): 13.4 nM
concentration at 69.8 min ([2]; 0.03 mg/kg, nM total compound in plasma post session, 0.03 mg/kg i.m., mean 69.8 min post injection, group mean): 13.3 nM
concentration at 69.8 min ([2]; 0.1 mg/kg, nM total compound in plasma post session, 0.10 mg/kg i.m., individual subjects): 56.3 nM
concentration at 69.8 min ([2]; 0.1 mg/kg, nM total compound in plasma post session, 0.10 mg/kg i.m., mean 69.8 min post injection, group mean): 47.8 nM
concentration at 69.8 min ([2]; 0.3 mg/kg, nM total compound in plasma post session, 0.30 mg/kg i.m., individual subjects): 125 nM
concentration at 69.8 min ([2]; 0.3 mg/kg, nM total compound in plasma post session, 0.30 mg/kg i.m., mean 69.8 min post injection, group mean): 140 nM
concentration at 69.8 min ([2]; 1 mg/kg, nM total compound in plasma post session, 1.00 mg/kg i.m., individual subjects): 614 nM
concentration at 69.8 min ([2]; 1 mg/kg, nM total compound in plasma post session, 1.00 mg/kg i.m., mean 69.8 min post injection, group mean): 493 nM
concentration at 69.8 min ([2]; 1 mg/kg, plasma concentration at which efficacy was lost, scopolamine vsPAL model): 493 nM
concentration at 69.8 min ([2]; mean plasma concentration at which improved eventual accuracy was observed, experimental subjects on completion of behavioral testing, efficacious doses): 13.3 to 140 nM
net charge relative to acetylcholine [3]: 78%
peak current response relative to acetylcholine [3]: 24%
